In patent US20250163119A1, “COMPOUNDS FOR THE TREATMENT OF DIABETES OR OBESITY” (Eli Lilly and Company, priority 2023, published 2025):
*1 amine or outer side, *2 acyl side, *3 side chain or, on linkers, in order; H or OH if unused. Where a SMILES comes first, the peptide text is derived from it. Side-chain parts run from the residue outwards. [ ]: non-standard residue; d: D form. The star is where a group is joined. C20 diacid = O=C(O)CCCCCCCCCCCCCCCCCCC(=O)*; γGlu = O=C(O)[C@H](CCC(=O)[*:2])N[*:1]; NMeI = CC[C@H](C)[C@H](NC)C(=O)O; AEEA = NCCOCCOCC(=O)O

Experiment: Association state determination by Sedimentation Velocity Analytical UltraCentrifugation (SV-AUC)
Assay type: physicochemical
Experimental: SV-AUC was performed at 20° C. using a Beckman Optima with AN 60 Ti rotor and final rotor speed of 60,000 rpm. Peptides were dialyzed into 5 mM phosphate pH 7 or 1× phosphate buffered saline (PBS) pH 7.2. Samples were adjusted to the desired concentration (0.1 mg/mL, 1 mg/mL, or 10 mg/mL) using relevant buffer as needed. Both samples and buffer were passed through […] PVDF centrifugal filter units. The filtered samples were loaded into the sample sectors of the cells; filtered buffer alone was loaded in the reference sector of the cells. A Wavelength Scan was performed as the first step to choose a suitable lambda […] value for the given compound with 1-1.2 OD at the concentration(s) tested; this value was generally between 225 nm and 254 nm and used for Method Scan in the next step. In the Method Scan, both absorbance and interference detection modules were used. Temperature equilibration was set as first stage with 0 rpm rotor speed for 3 hours. Sedimentation velocity was set as second stage with rotor speed at 60,000 rpm. 300 scans with frequency of 60 seconds or 500 scan counts with frequency of 120 seconds were performed at the designated wavelength. Data were analyzed with SEDFIT software wherein a continuous c(s) distribution model was applied; the setting of relevant parameters is shown in Table 4 and Table 5; sedimentation coefficient (s) values were reported in Svedherg units (S).
The experiment to characterize a compound comprising SEQ ID NO:54 was performed at 300 scan counts with frequency of 60 seconds; for all other tested polypeptides, the experiments were performed at 500 scan counts with frequency of 120 seconds.

[1] = 0.1 mg/mL, 1x PBS, pH 7.2, 20° C.

## CC[C@H](C)[C@H](NC)C(=O)N[C@H](C(=O)N[C@@H](CC(C)C)C(=O)N[C@@H](CO)C(=O)N[C@@H](CC(C)C)C(=O)N[C@@H](CC(=O)O)C(=O)N[C@H](C(=O)N1CCC[C@H]1C(=O)N[C@H](C(=O)NCC(=O)N[C@@H](CC(C)C)C(=O)N[C@@H](CC(C)C)C(=O)N[C@@H](CCC(N)=O)C(=O)N[C@H](C(=O)N[C@@H](CC(C)C)C(=O)N[C@@H](CC(C)C)C(=O)N[C@@H](CCC(=O)O)C(=O)N[C@@H](CCC(N)=O)C(=O)N[C@@H](CCC(=O)O)C(=O)N[C@@H](CCCCN)C(=O)N[C@@H](CCC(N)=O)C(=O)N[C@@H](CCC(=O)O)C(=O)N[C@@H](CCCCN)C(=O)N[C@@H](CCC(=O)O)C(=O)N[C@@H](CCCCN)C(=O)N[C@@H](CCC(N)=O)C(=O)N[C@@H](CCC(N)=O)C(=O)N[C@@H](C)C(=O)N[C@@H](CCCCNC(=O)COCCOCCNC(=O)COCCOCCNC(=O)CC[C@H](NC(=O)CC[C@H](NC(=O)CCCCCCCCCCCCCCCCCCC(=O)O)C(=O)O)C(=O)O)C(=O)N[C@H](C(=O)N[C@@H](CC(N)=O)C(=O)N[C@@H](C)C(=O)N[C@@H](CCC(N)=O)C(=O)N[C@H](C(=O)N[C@@H](CC(C)C)C(=O)N[C@@H](C)C(=O)N[C@@H](CCC(N)=O)C(=O)N[C@H](C(N)=O)C(C)C)[C@@H](C)CC)[C@@H](C)O)[C@@H](C)CC)[C@@H](C)CC)C(C)C)C(C)C [SEQ ID NO: 54] (H-[NMeI]VLSLDVPIGLLQILLEQEKQEKEKQQAK([AEEA-AEEA-γGlu-γGlu-C20 diacid])TNAQILAQV-NH2)
[1]
  Mw (SEDFIT), apparent molecular weight: 38787 Da
  Sedimentation Coefficient: 3.5 S
  Sedimentation Coefficient species (% of total): 89%
0.1, 1 and 10 mg/mL for SEQ ID NO:54
  self-association state from sedimentation coefficients: higher order oligomers were the major species
